Experimental data: patent US6589980B2, “Substituted 10,11-benzo[b]fluoren-10-ones as estrogenic agents” (Wyeth, priority 2001, dated 2003)

What was measured:
human ERβ = biological target: T1, human ERβ (Homo sapiens, UniProt Q92731); experiment: Competition with [3H]-17β-estradiol for binding to ERβ ligand binding domain; conditions: crude E. coli lysate expressing ER ligand binding domains (D,E,&F); 2 nM [3H]-17β-estradiol; 5-15 hours at room temperature
T1 construct: made in house; host or cells: E. coli (crude lysate)
Description: (§1) This test procedure provides the methodology for one to determine whether a particular compound binds to the estrogen receptor (and is therefore “estrogenic”) and whether there is selectivity for ERα or ERβ. […] The procedure used is briefly described below. A crude lysate of E. coli expressing the estrogen receptor ligand binding domains (D,E, & F) of human ERα or ERβ was prepared. Both receptors and compounds were diluted in 1×Dulbecco's PBS (DPBS) supplemented with 1 mM EDTA. […] After between 5 and 15 hours at room temperature, the plates were washed with DPBS/1 mM EDTA and bound radioactivity determined by liquid scintillation counting.

human ERα = biological target: T2, human ERα (Homo sapiens, UniProt P03372); experiment: Competition with [3H]-17β-estradiol for binding to ERα ligand binding domain; conditions: crude E. coli lysate expressing ER ligand binding domains (D,E,&F); 2 nM [3H]-17β-estradiol; 5-15 hours at room temperature
T2 construct: made in house; host or cells: E. coli (crude lysate)
T2 sequence (P03372 311-547 limits assumed): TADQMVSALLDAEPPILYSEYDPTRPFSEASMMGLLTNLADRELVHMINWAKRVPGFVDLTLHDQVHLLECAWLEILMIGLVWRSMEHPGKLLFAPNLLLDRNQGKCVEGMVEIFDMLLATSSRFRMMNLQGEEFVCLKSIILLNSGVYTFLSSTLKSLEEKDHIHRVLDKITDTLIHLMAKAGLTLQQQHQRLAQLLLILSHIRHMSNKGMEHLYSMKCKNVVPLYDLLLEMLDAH
Description: as §1

T1 sequence (Q92731 264-498 limits assumed): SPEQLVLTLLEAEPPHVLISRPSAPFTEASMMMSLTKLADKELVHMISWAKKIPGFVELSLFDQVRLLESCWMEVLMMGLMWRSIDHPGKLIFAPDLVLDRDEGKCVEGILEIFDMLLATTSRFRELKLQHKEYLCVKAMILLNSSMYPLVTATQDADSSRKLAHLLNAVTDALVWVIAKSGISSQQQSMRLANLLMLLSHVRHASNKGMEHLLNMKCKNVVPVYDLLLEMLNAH

## O=c1c2c(O)cc(O)cc2oc2oc3cc(O)ccc3c12 [2,6,8-Trihydroxy-10,11-dioxa-benzo[b]fluoren-5-one]
Human ERβ
  IC50: 0.002 µM

## O=c1c2ccc(O)cc2oc2oc3cc(O)ccc3c12 [2,8-Dihydroxy-10,11-dioxa-benzo[b]fluoren-5-one]
Human ERβ
  IC50: 0.028 µM
Human ERα
  IC50: 0.482 µM
other
  melting point: > 300 °C

## COc1cc(O)c2c(=O)c3c(oc2c1)oc1cc(O)ccc13 [2.6-Dihvdroxy-8-methoxy-10,11-dioxa-benzo[b]fluoren-5-one]
Human ERα
  IC50: 2.73 µM
